Test results published in patent US20110190199A1, “Combination Therapy for Tuberculosis” (priority 2008, published 2011).
“And” between values parts separate entries of the source, which are not always exact repeats. Identical values can stand only once. Marks after values point to notes of the source that are not given here.

Columns and labels:
M. tuberculosis H37Rv = assay: Example 9: compound of formula I added to first and second line anti-tuberculosis drugs (survival, lung CFU after 4 weeks); type: in vivo, mice; settings: for Mean lung log10 CFU count (±) S.D. after 4 weeks of treatment with: Regimen alone / Mean lung log10 CFU count (±) S.D. after 4 weeks of treatment with: Regimen + U 25 mg/kg / Mean lung log10 CFU count (±) S.D. after 4 weeks of treatment with: Regimen + U 100 mg/kg: D0 8.36 ± 0.10; for Mean lung log10 CFU count (±) S.D. after 4 weeks of treatment with: Regimen alone: H 10, R 10, Eb 100, M 100 mg, Et 50, A 150 sc, C 20 mg/kg; for Mean lung log10 CFU count (±) S.D. after 4 weeks of treatment with: Regimen + U 25 mg/kg: labelled drug PLUS U 25 mg/kg; for Mean lung log10 CFU count (±) S.D. after 4 weeks of treatment with: Regimen + U 100 mg/kg: labelled drug PLUS U 100 mg/kg, lower limit of detection 3.40; for Time to 50% mortality: no treatment 21 days
[1] = tested on: Mycobacterium tuberculosis H37Rv; type: in vivo, mice; settings: 25 mg/kg
[2] = tested on: Mycobacterium tuberculosis H37Rv; assay: Example 6: in vivo activity of the combination (lung CFU after 4 and 8 weeks); set-up: species or system mice; settings: for Lung log10 CFU counts (±SD) after treatment with the indicated regimen plus the compound of formula (I) 100 mg/kg/day, Day 28 / Lung log10 CFU counts (±SD) after treatment with the indicated regimen plus the compound of formula (I) 100 mg/kg/day, Day 56: labelled regimen PLUS compound of formula (I) 100 mg/kg/day, INH 25, RIF 10, PZA 150, MXF 100 mg/kg; for Lung log10 CFU counts (±SD) after treatment with the indicated regimen plus the compound of formula (I) 100 mg/kg/day, Day 28 / Lung log10 CFU counts (±SD) after treatment with the indicated regimen plus the compound of formula (I) 100 mg/kg/day, Day 56 / Lung log10 CFU counts (±SD) after treatment with the indicated regimen, Day 56 / Lung log10 CFU counts (±SD) after treatment with the indicated regimen, Day 28: Day 0 7.37 ± 0.12; for reduction in lung CFU counts from baseline over the first 28 days: monotherapy, compound of formula (I) 100, INH 25, RIF 10 mg/kg; for Lung log10 CFU counts (±SD) after treatment with the indicated regimen, Day 56 / Lung log10 CFU counts (±SD) after treatment with the indicated regimen, Day 28: regimen as labelled, INH 25, RIF 10, PZA 150, MXF 100, compound of formula (I) 100 mg/kg; for Lung log10 CFU counts (±SD) after treatment with the indicated regimen, Day 28: 100 mg/kg
[3] = tested on: Mycobacterium tuberculosis H37Rv; assay: Example 8B: eight week dose ranging study (second phase after 4 weeks RHZU25); type: in vivo, mice; set-up: Lung CFU / CFU-U only: unit not given here; settings: 8 weeks: 4 weeks RHZU25 (4.19 ± 0.26) then 4 weeks of the labelled treatment; R 10, H 25 mg/kg; untreated 5.49 ± 0.23
Method: Eighty of the mice from Group 4 (in Example 8A) that had been receiving 25 mg/kg of the compound of formula I (U) along with rifampin(R), isoniazid(H), and pyrazinamide(Z) were evaluated in the second phase of the study. They were assigned to one of the groups described below in Table 6 and the study was continued for an additional 4 weeks (i.e. 8 week results).
As described above, 5 animals served as the control and no further drugs were given. Five were given the combination of rifampin(R) and isoniazid (H), five given isoniazid (H) or rifampin(R) alone. […] Six of these groups were also dosed with rifampin (R). The rifampin and isoniazid was dosed in the same manner and in the same amount as in Example 8A.
At the conclusion of the eight (8) week experiment, all of the animals were sacrificed and CFU lung counts were obtained.

[4] = tested on: Mycobacterium tuberculosis H37Rv; assay: Example 8C: additional dose ranging study (4 and 8 weeks); type: in vivo, mice; settings: lung; 4 weeks RHZU100 then 4 weeks of the labelled control regimen without U; untreated 4.91 ± 0.17
Method: The protocol described above in Example 8A and 8B was carried out on an alternative occasion. The only substantive changes were the number of animals per group and the initial incubation period.
Testing continued for an additional 4 weeks with 60 of the mice from Test Group 2 immediately above. The mice either received U alone, at varying doses, or the combination of U and R. The following results were obtained.

Row | Compound | Mean lung log10 CFU count (±) S.D. after 4 weeks of treatment with: Regimen alone (M. tuberculosis H37Rv) | Mean lung log10 CFU count (±) S.D. after 4 weeks of treatment with: Regimen + U 25 mg/kg (M. tuberculosis H37Rv) | Mean lung log10 CFU count (±) S.D. after 4 weeks of treatment with: Regimen + U 100 mg/kg (M. tuberculosis H37Rv) | Time to 50% mortality (M. tuberculosis H37Rv) | other results
1 | NCC[C@H](O)C(=O)N[C@@H]1C[C@H](N)[C@@H](O[C@H]2O[C@H](CN)[C@@H](O)[C@H](O)[C@H]2O)[C@H](O)[C@H]1O[C@H]1O[C@H](CO)[C@@H](O)[C@H](N)[C@H]1O [A, amikacin] | 7.24 ± 0.14 log10 CFU | 6.78 ± 0.16 log10 CFU | 5.18 ± 0.17 log10 CFU | – | –
2 | CC(C)/N=c1\cc2n(-c3ccc(Cl)cc3)c3ccccc3nc-2cc1Nc1ccc(Cl)cc1 [C, clofazimine] | 5.92 ± 0.24 log10 CFU | 6.25 ± 0.20 log10 CFU | 4.91 ± 0.14 log10 CFU | – | –
3 | N[C@@H]1CON=C1O [Cs, cycloserine] | – | 7.19 ± 0.21 log10 CFU | 5.66 ± 0.11 log10 CFU | 22 days | –
4 | CC[C@@H](CO)NCCN[C@@H](CC)CO [Eb, ethambutol] | 7.41 ± 0.57 log10 CFU | 6.86 ± 0.16 log10 CFU | 5.50 ± 0.13 log10 CFU | 30 days | –
5 | CCc1cc(C(N)=S)ccn1 [Et, ethionamide] | 7.19 ± 0.04 log10 CFU | 7.18 ± 0.18 log10 CFU | 5.46 ± 0.15 log10 CFU | – | –
6 | NNC(=O)c1ccncc1 [INH, isoniazid] | 7.01 ± 0.14 log10 CFU | 6.22 ± 0.06 log10 CFU | 5.79 ± 0.33 log10 CFU | – | log kill (reduction in mean lung CFU count compared to the baseline value) ([1]; 28 days): 1.87 log10; mean spleen weight ([1]; after 28 days of treatment, pre-treatment 105±11 mg, untreated 237±16 mg): 100 ± 1 mg; Lung log10 CFU counts (±SD) after treatment with the indicated regimen plus the compound of formula (I) 100 mg/kg/day, Day 28 [2]: 4.33 ± 0.29 log10 CFU; Lung log10 CFU counts (±SD) after treatment with the indicated regimen plus the compound of formula (I) 100 mg/kg/day, Day 56 [2]: 2.87 ± 0.23 log10 CFU; reduction in lung CFU counts from baseline over the first 28 days [2]: 1.58 log10; Lung log10 CFU counts (±SD) after treatment with the indicated regimen, Day 56 [2]: 4.53 ± 0.24 log10 CFU; Lung log10 CFU counts (±SD) after treatment with the indicated regimen, Day 28 [2]: 5.79 log10 CFU and 5.79 ± 0.14 log10 CFU; Lung CFU [3]: 4.46 ± 0.37
7 | COc1c(N2C[C@@H]3CCCN[C@@H]3C2)c(F)cc2c(=O)c(C(=O)O)cn(C3CC3)c12 [M, moxifloxacin] | 6.49 ± 0.12 log10 CFU | 7.08 ± 0.10 log10 CFU | 5.33 ± 0.30 log10 CFU | – | –
8 | Nc1ccc(C(=O)O)c(O)c1 [Ps, para-aminosalicyclic acid] | – | 6.87 ± 0.21 log10 CFU | 5.39 ± 0.32 log10 CFU | 31 days | –
9 | CO[C@H]1/C=C/O[C@@]2(C)Oc3c(C)c(O)c4c(O)c(c(/C=N/N5CCN(C)CC5)c(O)c4c3C2=O)NC(=O)/C(C)=C\C=C\[C@H](C)[C@H](O)[C@@H](C)[C@@H](O)[C@@H](C)[C@H](OC(C)=O)[C@@H]1C [RIF, rifampin] | 6.23 ± 0.11 log10 CFU | 5.91 ± 0.21 log10 CFU | 5.02 ± 0.10 log10 CFU | – | Lung log10 CFU counts (±SD) after treatment with the indicated regimen plus the compound of formula (I) 100 mg/kg/day, Day 28 [2]: 3.73 ± 0.19 log10 CFU; Lung log10 CFU counts (±SD) after treatment with the indicated regimen plus the compound of formula (I) 100 mg/kg/day, Day 56 [2]: 1.29 ± 0.22 log10 CFU; reduction in lung CFU counts from baseline over the first 28 days [2]: 1.63 log10; Lung log10 CFU counts (±SD) after treatment with the indicated regimen, Day 56 [2]: 4.65 ± 0.24 log10 CFU; Lung log10 CFU counts (±SD) after treatment with the indicated regimen, Day 28 [2]: 5.74 log10 CFU and 5.74 ± 0.17 log10 CFU; Lung CFU [3]: 4.18 ± 0.55; CFU Count 8 weeks [4]: 4.16 ± 0.65
10 | NC(=O)c1cnccn1 [Z, pyrazinamide] | – | 4.73 ± 0.38 log10 CFU | ≦3.59*** log10 CFU | 21 days | –
11 | capreomycin | – | 6.81 ± 0.13 log10 CFU | 5.35 ± 0.17 log10 CFU | 22 days | –
